In ChEMBL document CHEMBL3813657, “Bacterial Peptide deformylase inhibition of cyano substituted biaryl analogs: Synthesis, in vitro biological evaluation, molecular docking study and in silico ADME prediction” (Bioorg Med Chem, 2016):
In brackets after ≈: the same amount, converted by molar mass.

Key:
Bacillus subtilis = test: Antibacterial activity against Bacillus subtilis NCIM-2063 after 24 hrs by two fold serial dilution method; format: functional; conditions: NCIM-2063, 24 h
Peptide deformylase [1] = target: T1, Peptide deformylase (Escherichia coli, UniProt Q9JN24); test: Inhibition of NiCl2 stabilized Escherichia coli NCIM-2931 peptide deformylase using N-formyl-Met-Ala as substrate incubated for 30 mins by spectrophotometric method
T1 sequence (Q9JN24 whole entry): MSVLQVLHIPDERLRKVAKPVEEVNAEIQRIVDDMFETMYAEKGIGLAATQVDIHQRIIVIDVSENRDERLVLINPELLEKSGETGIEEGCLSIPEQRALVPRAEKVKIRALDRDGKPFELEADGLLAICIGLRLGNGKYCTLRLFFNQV

Escherichia coli = test: Antibacterial activity against Escherichia coli NCIM-2256 after 24 hrs by two fold serial dilution method; format: functional; conditions: NCIM-2256, 24 h
Peptide deformylase [2] = target: T1, Peptide deformylase; test: Inhibition of Escherichia coli peptide deformylase

Row | IC50 (Peptide deformylase [2]) [µM] | SMILES | MIC (Bacillus subtilis) [µg/mL] | IC50 (Peptide deformylase [1]) [µM] | MIC (Escherichia coli) [µg/mL]
1 |  | N#Cc1ccccc1-c1ccc(CNc2ccc(Cl)cc2[N+](=O)[O-])cc1 | 27.2 (≈ 74.7 µM) | 28.3 | 45.6 (≈ 125 µM)
2 |  | COc1ccc2nc(NCc3ccc(-c4ccccc4C#N)cc3)sc2c1 | 36.2 (≈ 97.6 µM) | 27.8 | 35.2 (≈ 94.9 µM)
3 |  | N#Cc1ccccc1-c1ccc(CNc2ccccc2O)cc1 | 29.3 (≈ 97.6 µM) | 33 | 39.6 (≈ 132 µM)
4 |  | N#Cc1ccccc1-c1ccc(CNc2ccc(C(=O)O)cc2)cc1 | 26.8 (≈ 81.5 µM) | 51.2 | 32.6 (≈ 99.2 µM)
5 | 3.9 | CCCc1nc2ccc(Cl)cc2n1Cc1ccc(-c2ccccc2-c2nnn[nH]2)cc1 |  |  | 
6 |  | N#Cc1ccccc1-c1ccc(CNc2ccccc2)cc1 | 11 (≈ 38.7 µM) | 13.2 | 15.8 (≈ 55.7 µM)
7 |  | N#Cc1ccccc1-c1ccc(CNc2cccc([N+](=O)[O-])c2)cc1 | 29.3 (≈ 89.1 µM) | 25 | 40.9 (≈ 124 µM)
8 |  | O=C(O)c1cn(C2CC2)c2cc(N3CCNCC3)c(F)cc2c1=O [CIPROFLOXACIN] |  |  | 25 (≈ 75.4 µM)
9 |  | N#Cc1ccccc1-c1ccc(CNc2cccc(C(F)(F)F)c2)cc1 | 25.8 (≈ 73.3 µM) | 20.9 | 42.5 (≈ 121 µM)
10 |  | N#Cc1ccccc1-c1ccc(CNc2ccc(N3CCOCC3)c(F)c2)cc1 | 21.6 (≈ 55.7 µM) | 42.5 | 37.3 (≈ 96.3 µM)
11 | 22.8 | CCCC1=NC2C(C)=CC(C)=NN2C1Cc1ccc(-c2ccccc2C(=O)O)cc1 (configuration not stated) |  |  | 
12 |  | N#Cc1ccccc1-c1ccc(CNc2ccc(C(F)(F)F)cc2)cc1 | 34.4 (≈ 97.7 µM) | 33.5 | 35.5 (≈ 101 µM)
13 |  | N#Cc1ccccc1-c1ccc(CNc2ccccc2[N+](=O)[O-])cc1 | 23.8 (≈ 72.1 µM) | 15.7 | 28.5 (≈ 86.5 µM)
14 |  | N#Cc1ccccc1-c1ccc(CNc2ccc(O)cc2)cc1 | 28.3 (≈ 94.3 µM) | 34.6 | 33.6 (≈ 112 µM)
15 |  | N#Cc1ccccc1-c1ccc(CNc2cnccn2)cc1 | 7.66 (≈ 26.8 µM) | 19.2 | 16.9 (≈ 59.1 µM)
16 |  | N#Cc1ccccc1-c1ccc(CNn2cnnc2)cc1 | 23.8 (≈ 86.3 µM) | 50.7 | 36.5 (≈ 133 µM)
